In US12478605B2, “Biochanin a derivatives for treatment of BEST1-related retinopathies” (Universität Regensburg, priority 2020, dated 2025):

Legend:
mutant BEST1 R218C [1] = target: T1, mutant BEST1 R218C (Homo sapiens, UniProt O76090, R218C); assay: YFP-halide transport assay (I- influx), MDCKII cells expressing mutant BEST1-R218C; assay type: cell-based
T1 construct: expressed in transfected cells
T1 sequence (O76090 1-585 R218C): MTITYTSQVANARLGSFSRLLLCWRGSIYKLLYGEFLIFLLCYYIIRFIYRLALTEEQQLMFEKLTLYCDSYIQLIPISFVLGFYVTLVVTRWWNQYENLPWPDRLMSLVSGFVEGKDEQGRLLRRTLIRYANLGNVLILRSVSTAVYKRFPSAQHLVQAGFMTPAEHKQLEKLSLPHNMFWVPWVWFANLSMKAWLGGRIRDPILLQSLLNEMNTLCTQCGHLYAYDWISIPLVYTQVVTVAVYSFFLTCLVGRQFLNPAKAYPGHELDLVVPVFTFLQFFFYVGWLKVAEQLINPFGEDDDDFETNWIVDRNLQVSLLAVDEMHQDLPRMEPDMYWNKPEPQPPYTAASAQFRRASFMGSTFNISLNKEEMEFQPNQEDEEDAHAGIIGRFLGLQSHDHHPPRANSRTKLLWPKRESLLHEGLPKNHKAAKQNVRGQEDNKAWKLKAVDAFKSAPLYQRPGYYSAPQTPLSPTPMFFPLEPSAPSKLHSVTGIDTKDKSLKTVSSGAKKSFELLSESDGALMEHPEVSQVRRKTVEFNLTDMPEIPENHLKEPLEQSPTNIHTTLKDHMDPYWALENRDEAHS
Protocol: Human hiPSC-RPE or MDCKII cells were transduced via lentivirus particles which were produced by co-transfecting HEK293T cells with the yellow fluorescence protein (YFPH148Q/I152L)-pLJM1 and helper plasmids pMD2.G and psPAX2 using the Ca^2+ phospate transfection method. After six weeks of cultivation in 96-well black microtiter plates, cells were incubated with 100 mM Cl^− containing solution and basal YFP fluorescence was measured in a Tecan microplate reader. Subsequently Cl^− was replaced with equimolar I^− and decrease of YFP fluorescence intensity was monitored for another 2 min in 10 sec intervals.
To analyze BEST1-mediated anion transport in the cell lines generated in the previous examples, a well-established halide transport assay (Galietta et al., 2001) was adapted. […] Addition of I— leads to specific YFP quenching over time and changes of fluorescence intensities can be monitored on a plate reader. MDCKII cells were incubated with 100 mM Cl— containing solution and steady state YFP fluorescence signal intensities were measured after 6 minutes. Subsequently, Cl— was replaced by equimolar I— and anion permeability was monitored by decreasing YFP intensities as a result of BEST1-mediated I— influx in a time course up to 2 minutes (FIG. 2B). For several independent BEST1 wildtype cell lines a fast kinetic of decreasing fluorescence intensities to ˜30 to 40% was observed while the untransfected control cell lines remained flat (FIGS. 2C and D).
Example 8—Evaluation of BioA(C2H3O2)2 activity in MDCKII cells MDCKII cells co-expressing YFP and BEST1 wildtype or mutant p.(R218C) were seeded on black 96-well plates and cultivated for 6 days to achieve polarity, a requirement for correct basolateral localization of BEST1 in epithelial cells. Compounds were tested separately at 10 μM concentration in a 96-well format. After compound addition for 24 h, cells were subjected to an inwardly directed I— gradient to drive I— influx and produce decreasing (quenched) fluorescence signals. […]

mutant BEST1 R218C [2] = target: T1, mutant BEST1 R218C; assay: YFP-based I- efflux assay in MDCKII cells co-expressing YFP and mutant BEST1 R218C; assay type: cell-based; conditions: 5 μM, compound addition for 24 h, FIGS. 6-8
Protocol: MDCKII cells co-expressing yellow fluorescence protein (YFP) and mutant BEST1 R218C were seeded on black 96-well plates and cultivated for 6 days to achieve polarity, a crucial requirement for correct basolateral localization of BEST1 in epithelial cells. Compounds were tested at 5 μM concentration in a 96-well format. After compound addition for 24 h, cells were subjected to an outwardly directed iodid (I^−)-gradient to drive BEST1-mediated I^− efflux and produce increasing fluorescence signals. Each assay consisted of recording of YFP quenching after I^− pre-incubation for 6 min (=100% value), followed by 7 min of recording of increasing fluorescence after addition of the chloride (Cr) containing solution. Changes of fluorescence intensities were monitored on a plate reader. The effect on the kinetics of I— efflux was tested for Biochanin A (FIG. 6A), Trimethoxyisoflavone (FIG. 6B), 5,4-dimethoxy hydroxyisoflavone (FIG. 6C), Biochanin A-7-methyl ether (FIG. 6D), Biochanin A-7-acetate (FIG. 6E), Biochanin A diacetate (FIG. 6F), Biochanin A-7-pentanoate (FIG. 6G), Biochanin A dipentanoate (FIG. 6H), Biochanin A-7-pivalate (FIG. 7A), Biochanin A-dipavalate (FIG. 7B), Biochanin A-7-acrylate (FIG. 7C), Biochanin A diacrylate (FIG. 7D), Biochanin A-7-methyl fumarate (FIG. 7E), Biochanin A-di(methyl fumarate) (FIG. 7F), Biochanin A-7-butylcarbamate (FIG. 7G), Biochanin A di(butylcarbamate) (FIG. 7H), Biochanin A-7-phosphate disodium salt (FIG. 8A), Biochanin A-7-isopropylate (FIG. 8B), 7-pivaloxymethyl-Biochanin A (FIG. 8C), Biochanin A diisopropylate (FIG. 8D), Biochanin A-7-isopropyl carbonate (FIG. 8E), Biochanin A diisopropyl carbonate (FIG. 8F), Isopropyloxycarbonylmethoxy-Biochanin A (FIG. 8G).

## COc1ccc(-c2coc3cc(OC(C)=O)cc(OC(C)=O)c3c2=O)cc1 [Biochanin A diacetate, 3-(4-Methoxyphenyl)-4oxo-4H-chromene-5,7-diyl diacetate]
Mutant BEST1 R218C [1]; MDCKII cells, FIG. 4A, comparison of Biochanin A derivatives
  effect on BEST1 anion transport activity: greatest effect
Mutant BEST1 R218C [1]; MDCKII mutant BEST1-R218C, various concentrations from 2 μM to 20 μM, 24 h, FIG. 4C
  anion transport activity (I- influx): strongly
Mutant BEST1 R218C [2]
  anion transport activity (kinetics of I- efflux) in comparison to untreated cells: strongly increased
